From ChEMBL document CHEMBL1201862, “PubChem BioAssay data set” (2004)
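Protocol summary: plate cells (96-well), add compound at 5 concentrations, incubate 48 h, interpolate endpoints linearly. GI50 is the concentration that inhibits growth by half.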 Activity calls are given as the source filed them. Rule as the data show it: active = GI50 up to about 1.1 µM and inactive = higher.

Columns and labels:
Test in all cases: inhibition of tumour cell growth, NCI panel, 48 h
[1] = test system: 786-0
[2] = test system: A549
[3] = test system: ACHN
[4] = test system: CAKI-1
[5] = test system: CCRF-CEM
[6] = test system: COLO 205
[7] = test system: DLD-1
[8] = test system: DMS-114
[9] = test system: DMS-273
[10] = test system: HCC 2998
[11] = test system: HCT-116
[12] = test system: HL-60
[13] = test system: HOP-18
[14] = test system: HOP-62
[15] = test system: HOP-92
[16] = test system: HT-29
[17] = test system: IGROV-1
[18] = test system: K562
[19] = test system: KM12
[20] = test system: LOX IMVI
[21] = test system: LXFL 529
[22] = test system: M14
[23] = test system: M19-MEL
[24] = test system: MOLT-4
[25] = test system: Malme-3M
[26] = test system: NCI-H23
[27] = test system: NCI-H460
[28] = test system: NCI-H522
[29] = test system: OVCAR-3
[30] = test system: OVCAR-4
[31] = test system: OVCAR-5
[32] = test system: OVCAR-8
[33] = test system: RXF 393
[34] = test system: RXF 631
[35] = test system: SF-268
[36] = test system: SF-295
[37] = test system: SF-539
[38] = test system: SK-MEL-28
[39] = test system: SK-MEL-5
[40] = test system: SN12C
[41] = test system: SNB-19
[42] = test system: SNB-75
[43] = test system: SNB-78
[44] = test system: SR
[45] = test system: SW-620
[46] = test system: TK-10
[47] = test system: U-251
[48] = test system: UACC-257
[49] = test system: UACC-62
[50] = test system: UO-31
[51] = test system: XF498
[52] = test system: EKVX
[53] = test system: HCT-15
[54] = test system: KM-20L2
[55] = test system: RPMI-8226
[56] = test system: SK-OV-3
[57] = test system: NCI-H226
[58] = test system: SK-MEL-2

SMILES: NC1=NS(=O)(=O)Nc2nc(-c3ccc(Cl)cc3)c(-c3ccc(Cl)cc3)nc21
- GI50 [1]: > 100 µM (inactive)
- GI50 [2]: > 100 µM (inactive)
- GI50 [3]: > 100 µM (inactive)
- GI50 [4]: > 100 µM (inactive)
- GI50 [5]: 82.4 µM (inactive)
- GI50 [6]: > 100 µM (inactive)
- GI50 [7]: > 100 µM (inactive)
- GI50 [8]: 32.1 µM (inactive)
- GI50 [9]: > 100 µM (inactive)
- GI50 [10]: > 100 µM (inactive)
- GI50 [11]: > 100 µM (inactive)
- GI50 [12]: > 100 µM (inactive)
- GI50 [13]: > 100 µM (inactive)
- GI50 [14]: > 100 µM (inactive)
- GI50 [15]: > 100 µM (inactive)
- GI50 [16]: > 100 µM (inactive)
- GI50 [17]: > 100 µM (inactive)
- GI50 [18]: 34 µM (inactive)
- GI50 [19]: > 100 µM (inactive)
- GI50 [20]: 29.3 µM (inactive)
- GI50 [21]: 34.9 µM (inactive)
- GI50 [22]: > 100 µM (inactive)
- GI50 [23]: > 100 µM (inactive)
- GI50 [24]: > 100 µM (inactive)
- GI50 [25]: > 100 µM (inactive)
- GI50 [26]: > 100 µM (inactive)
- GI50 [27]: > 100 µM (inactive)
- GI50 [28]: 48 µM (inactive)
- GI50 [29]: > 100 µM (inactive)
- GI50 [30]: > 100 µM (inactive)
- GI50 [31]: > 100 µM (inactive)
- GI50 [32]: > 100 µM (inactive)
- GI50 [33]: > 100 µM (inactive)
- GI50 [34]: > 100 µM (inactive)
- GI50 [35]: > 100 µM (inactive)
- GI50 [36]: > 100 µM (inactive)
- GI50 [37]: > 100 µM (inactive)
- GI50 [38]: > 100 µM (inactive)
- GI50 [39]: > 100 µM (inactive)
- GI50 [40]: > 100 µM (inactive)
- GI50 [41]: > 100 µM (inactive)
- GI50 [42]: > 100 µM (inactive)
- GI50 [43]: > 100 µM (inactive)
- GI50 [44]: > 100 µM (inactive)
- GI50 [45]: > 100 µM (inactive)
- GI50 [46]: > 100 µM (inactive)
- GI50 [47]: 65.8 µM (inactive)
- GI50 [48]: > 100 µM (inactive)
- GI50 [49]: > 100 µM (inactive)
- GI50 [50]: > 100 µM (inactive)
- GI50 [51]: 69.3 µM (inactive)

SMILES: CC1C=CC(=O)C(n2cc(F)c(=O)[nH]c2=O)O1 (stereo not given)
- GI50 [1]: 16 µM (inactive)
- GI50 [2]: 24.4 µM (inactive)
- GI50 [3]: 20 µM (inactive)
- GI50 [4]: 11.6 µM (inactive)
- GI50 [5]: 8.89 µM (inactive)
- GI50 [6]: 20.1 µM (inactive)
- GI50 [7]: 18.6 µM (inactive)
- GI50 [8]: 15.9 µM (inactive)
- GI50 [9]: 21.4 µM (inactive)
- GI50 [52]: 22.5 µM (inactive)
- GI50 [11]: 15.7 µM (inactive)
- GI50 [53]: 16.6 µM
- GI50 [12]: 20.1 µM (inactive)
- GI50 [13]: 10.8 µM (inactive)
- GI50 [14]: 20.8 µM (inactive)
- GI50 [15]: 17.5 µM (inactive)
- GI50 [16]: 18.2 µM (inactive)
- GI50 [17]: 20.8 µM (inactive)
- GI50 [18]: 17.7 µM (inactive)
- GI50 [54]: 21.3 µM (inactive)
- GI50 [20]: 15.8 µM (inactive)
- GI50 [22]: 18.1 µM (inactive)
- GI50 [23]: 18.5 µM (inactive)
- GI50 [24]: 16.5 µM (inactive)
- GI50 [25]: 14.2 µM (inactive)
- GI50 [26]: 18.1 µM (inactive)
- GI50 [27]: 23.3 µM (inactive)
- GI50 [29]: 17.3 µM (inactive)
- GI50 [30]: 18.5 µM (inactive)
- GI50 [32]: 22.4 µM (inactive)
- GI50 [55]: 14.4 µM (inactive)
- GI50 [33]: 19.8 µM (inactive)
- GI50 [34]: 19.7 µM (inactive)
- GI50 [36]: > 10 µM (inactive)
- GI50 [37]: 17.2 µM (inactive)
- GI50 [38]: 23.4 µM (inactive)
- GI50 [39]: 17.9 µM (inactive)
- GI50 [56]: 27.7 µM (inactive)
- GI50 [40]: 18.4 µM (inactive)
- GI50 [41]: 22.2 µM (inactive)
- GI50 [42]: 18.8 µM (inactive)
- GI50 [43]: 28.2 µM (inactive)
- GI50 [45]: 17.6 µM (inactive)
- GI50 [46]: 18.7 µM (inactive)
- GI50 [47]: 15.7 µM (inactive)
- GI50 [48]: 16.4 µM (inactive)
- GI50 [49]: 16.2 µM (inactive)
- GI50 [50]: 16.4 µM (inactive)
- GI50 [51]: 15.1 µM (inactive)

SMILES: Cc1ccc2c(c1)C1(OC(=O)c3ccccc31)c1ccc(F)cc1O2 (stereo not given)
- GI50 [1]: 77.6 µM (inactive)
- GI50 [2]: 48.9 µM (inactive)
- GI50 [4]: 30 µM (inactive)
- GI50 [5]: 31.8 µM (inactive)
- GI50 [6]: 38.7 µM (inactive)
- GI50 [7]: 61.8 µM (inactive)
- GI50 [8]: 34.6 µM (inactive)
- GI50 [52]: 59 µM (inactive)
- GI50 [10]: 66.1 µM (inactive)
- GI50 [11]: 32.7 µM (inactive)
- GI50 [12]: 21.7 µM (inactive)
- GI50 [13]: > 100 µM (inactive)
- GI50 [14]: > 100 µM (inactive)
- GI50 [15]: 16.1 µM (inactive)
- GI50 [16]: 39.3 µM (inactive)
- GI50 [17]: > 100 µM (inactive)
- GI50 [18]: 35 µM (inactive)
- GI50 [54]: 44.1 µM (inactive)
- GI50 [19]: 51.3 µM (inactive)
- GI50 [20]: 39.6 µM (inactive)
- GI50 [21]: 56.5 µM (inactive)
- GI50 [22]: 28.6 µM (inactive)
- GI50 [23]: 57 µM (inactive)
- GI50 [24]: 20.3 µM (inactive)
- GI50 [25]: 67.8 µM (inactive)
- GI50 [57]: 18.7 µM (inactive)
- GI50 [28]: 23.9 µM (inactive)
- GI50 [29]: 55.2 µM (inactive)
- GI50 [30]: 49.8 µM (inactive)
- GI50 [31]: > 100 µM (inactive)
- GI50 [32]: > 100 µM (inactive)
- GI50 [55]: 24.2 µM (inactive)
- GI50 [34]: 83.9 µM (inactive)
- GI50 [35]: 68.4 µM (inactive)
- GI50 [58]: 43.3 µM (inactive)
- GI50 [39]: 32.7 µM (inactive)
- GI50 [56]: > 100 µM (inactive)
- GI50 [40]: > 100 µM (inactive)
- GI50 [44]: 25.5 µM (inactive)
- GI50 [45]: 34.6 µM (inactive)
- GI50 [46]: > 100 µM (inactive)
- GI50 [48]: 31 µM (inactive)
- GI50 [49]: 70.6 µM (inactive)
- GI50 [50]: 20.3 µM (inactive)
- GI50 [51]: 82.8 µM (inactive)
